Values quoted from earlier work, collected in the CATMoS acute toxicity set (Mansouri et al. 2021).
Where “and” joins values, the source holds several entries; their conditions need not be identical. Equal values may be shown once.

Experiment: rat acute oral toxicity
Settings: in vivo

Row | SMILES | LD50
1 | Cc1cc([N+](=O)[O-])ccc1S(=O)(=O)NCCO | 4470 mg/kg
2 | CCCN(CCC)c1c([N+](=O)[O-])cc(C(C)=O)cc1[N+](=O)[O-] | 750 mg/kg
3 | CCCCc1c(OC(=O)c2ccccc2)n(-c2ccccc2)n(-c2ccccc2)c1=O | 2200 mg/kg
4 | COc1cc2[nH]c(=N)sc2cc1OC | 1160 mg/kg
5 | COc1ccc2c(c1)c(CC(=O)O)c(C)n2C(=O)c1ccc(Cl)cc1 | 21 mg/kg
6 | CNC(=O)ON=C1CSC(C)CS1 (centres undefined) | 5.1 mg/kg
7 | Cc1cc(O)c(C(C)(C)C)cc1C | 1030 mg/kg
8 | Nc1ccc(-c2ccc(N)c(Cl)c2)cc1Cl | 3820 mg/kg
9 | C=CC#CC(C)(C)O | 600 mg/kg
10 | CCCc1nc(C)cc(OC(=O)N(C)C)n1 | 200 mg/kg
11 | CN=C(O)Oc1cccc2c1OC(C)C2 (centres undefined) | 43 mg/kg
12 | CCC#N | 39 mg/kg
13 | CC(=O)C1(O)Cc2c(O)c3c(c(O)c2C(OC2CC(N)C(O)C(C)O2)C1)C(=O)c1c(O)cccc1C3=O (centres undefined) | 23 mg/kg
14 | C=CC(C)(O)CCCCC (centres undefined) | 1800 mg/kg
15 | Nc1cc(Cl)ccc1O | 690 mg/kg
16 | N#Cc1cc([N+](=O)[O-])ccc1Cl | 3200 mg/kg
17 | CC(C)CCCC(C)NN (centres undefined) | 108 mg/kg
18 | CCCCOCCOCCOCOCCOCCOCCCC | 1750 mg/kg
19 | COC(=O)C(c1ccccc1)C1CCCCN1 (centres undefined) | 367 mg/kg and 350 mg/kg
20 | CC(C(=O)O)c1ccc2c(c1)CC(=O)c1ccccc1S2 (centres undefined) | 425 mg/kg
21 | C[C@@H](NCCc1ccc(O)cc1)[C@@H](O)c1ccc(O)cc1 (racemic) | 1840 mg/kg
22 | CC(CN(C)C)C(C)(O)Cc1ccc(Cl)cc1 (centres undefined) | 802 mg/kg
23 | CC(C)CNC(=O)NS(=O)(=O)c1ccc(Cl)cc1 | 1100 mg/kg
24 | COc1ccccc1N1CCN(CCCc2ccc3c(c2)CCC(=O)N3)CC1 | 500 mg/kg
25 | O=Cc1cccs1 | 915 mg/kg

Row | SMILES | LD50
26 | CCCCC(CC)CNc1ccccc1 (centres undefined) | 2410 mg/kg
27 | C=C1CC(C)C2C3Cc4ccc(O)cc4C2(CCN3CC2CCC2)C1 (centres undefined) | 750 mg/kg
28 | CCN(CC)c1cccc(OC(=O)NC)c1 | 91 mg/kg
29 | CCOP(=O)(OCC)SCCS(=O)(=O)CC | 1.9 mg/kg
30 | CSCC(=O)N(C)C(=O)Oc1ccccc1OC(C)C | 650 mg/kg
31 | O=C1C=CC(=O)N1c1ccccc1Cl | 520 mg/kg
32 | CCCn1c(C)cc(OP(=S)(OCC)OCC)cc1=O | 9.75 mg/kg
33 | C=CCOC1=NS(=O)(=O)c2ccccc21 | 2030 mg/kg
34 | Cc1cc(CC(C)CC(C)(C)C)oc(=O)c1 (centres undefined) | 1480 mg/kg
35 | O=C1c2ccccc2C(=O)c2c(Nc3ccc(Oc4ccc(S(=O)(=O)O)cc4)cc3)ccc(Nc3ccc(Oc4ccc(S(=O)(=O)O)cc4)cc3)c21 | 8550 mg/kg
36 | C=CCn1c(C)c(N(C)C)c(=O)n(-c2ccccc2)c1=O | 2400 mg/kg
37 | CO[C@]12C[C@@H](COC(=O)c3cncc(Br)c3)CN(C)[C@@H]1Cc1cn(C)c3cccc2c13 | 1190 mg/kg
38 | O=C(O)Cc1ccc(-c2ccccc2F)cc1 | 638 mg/kg
39 | CNC(=S)S | 108 mg/kg
40 | CCOP(=S)(OCC)OP(=S)(OCC)OCC | 5 mg/kg
41 | CCCCCCCCCCCC[n+]1ccc2ccccc2c1 | 230 mg/kg
42 | CCC1(CC)C(=O)C=CN(CN2CCOCC2)C1=O | 1950 mg/kg
43 | FC(F)(F)c1cccc(C2CNCCO2)c1 (centres undefined) | 271 mg/kg
44 | O=[N+]([O-])c1ccc(Nc2ccc(O)cc2)c([N+](=O)[O-])c1 | 15600 mg/kg
45 | [2H]C([2H])([2H])N(COC(C)=O)N=O | 120 mg/kg
46 | FC(F)(F)c1nc2c(Cl)cccc2[nH]1 | 19.2 mg/kg
47 | CO[Si](C)(CCCNCCN)OC | 200 mg/kg
48 | O=C(O)C(Cc1cc(I)c(O)c(I)c1)c1ccccc1 (centres undefined) | 1100 mg/kg
49 | CCCCC1C(=O)NC(=O)N(C2CCCCC2)C1=O (centres undefined) | 1120 mg/kg
50 | COCCOc1c(OC)cc(Cc2cnc(N)nc2N)cc1OC | 1170 mg/kg

Row | SMILES | LD50
51 | CN(C)C(=S)N(C)C | 920 mg/kg
52 | O=C(NC(=O)c1c(F)cccc1F)Nc1cc(Cl)c(Oc2ncc(C(F)(F)F)cc2Cl)c(Cl)c1 | 445 mg/kg
53 | N#CCCCCCN | 820 mg/kg
54 | CC/C=C\CCO | 4700 mg/kg
55 | O=C(CCBr)N1CCN(C(=O)CCBr)CC1 | 220 mg/kg
56 | C[C@H](NCC=C(c1ccsc1)c1ccsc1)[C@H](O)c1ccccc1 | 6600 mg/kg
57 | S=C(NNc1ccccc1)NNc1ccccc1 | 1500 mg/kg
58 | CN(Sc1cc(Cl)ccc1Cl)C(=O)Oc1cccc2c1OC(C)(C)C2 | 25 mg/kg
59 | N#CCCNCCC#N | 2700 mg/kg
60 | CNC(=O)ON=C1CSCCS1 | 15 mg/kg
61 | CCOC(=O)OC(C)OC(=O)[C@@H]1N2C(=O)[C@@H](NC(=O)[C@H](N)c3ccccc3)[C@H]2SC1(C)C (some centres undefined) | 10000 mg/kg
62 | COc1ccc(CCNCC(O)COc2cccc(C)c2)cc1OC (centres undefined) | 460 mg/kg
63 | CC(C)=CCl | 4460 mg/kg
64 | CCN(CC)CCCN(c1ccccc1)C1Cc2ccccc2C1 | 525 mg/kg
65 | ClCCOCCOCCCl | 250 mg/kg
66 | CCOP(=O)(OCC)SCS(=O)(=O)CC | 0.5 mg/kg
67 | CCOC(=O)N1CCC=C(C=NOC)C1 | 200 mg/kg
68 | NC1=C(Cl)C(=O)c2ccccc2C1=O | 1360 mg/kg
69 | Cc1cc(C)[nH]n1 | 1720 mg/kg
70 | CCOP(=O)(OCC)SCC1(C)SCCS1 | 28 mg/kg
71 | Oc1ccc(-c2ccccc2)cc1CN1CCCC1 | 30 mg/kg
72 | O=NN(CCF)C(=O)NC1CCCCC1 | 18.5 mg/kg
73 | CCCCNC(N)=O | 1260 mg/kg
74 | Cc1cccc2ccccc12 | 1840 mg/kg
